Read-outs that look alike come from different tables or passages of the source.
Legend:
EKVX = experiment: NCI 60 cell line screen (SRB), Non-Small Cell Lung Cancer; type: cell-based; settings: for Log10TGI: PG=0
U251 = experiment: NCI 60 cell line screen (SRB), CNS Cancer; type: cell-based; settings: for Log10TGI: PG=0
KM12 = experiment: NCI 60 cell line screen (SRB), Colon Cancer; type: cell-based; settings: for Log10TGI: PG=0
NCI-H23 = experiment: NCI 60 cell line screen (SRB), Non-Small Cell Lung Cancer; type: cell-based; settings: for Log10TGI: PG=0
A498 = experiment: NCI 60 cell line screen (SRB), Renal Cancer; type: cell-based; settings: for Log10TGI: PG=0
BT-549 = experiment: NCI 60 cell line screen (SRB), Breast Cancer; type: cell-based
MOLT-4 = settings: for drug concentration for primary growth inhibition (percentage growth +50): FIGS. 6a-6e; for Log10TGI: PG=0
Description: The screening assay is performed on 96-well microtitre plates. Relatively high initial inoculation densities are used, in order to permit measurement of “time-zero” values and to enhance the screen's ability to detect and provide some differentiation between antiproliferative and cytotoxic response parameters. […] The inoculated microtitre plates are pre-incubated for 24 hours at 37θC prior to drug additions. The five drug dilutions tested routinely range from 10^−4 to 10^−8 molar. Higher or lower concentration ranges may be selected on a nonroutine basis if appropriate solubility and/or prior biological information or other screening data so dictate. Duplicate wells are prepared for all concentrations, (concentration is often denoted by placing brackets around a number); “time-zero” and “no drug” controls are also provided for each test. The minimum amount of compound required for a one-time evaluation in the routine screen can be calculated from the knowledge that each test requires a total of approximately 40 ml (0.04 liter) of cell culture medium containing the highest desired drug concentration. Thus, the amount (grams) of sample required (assuming an upper test concentration limit of 10^−4 M) is: molecular weight of compound×[…]. After a 48 hour incubation (37θC) with the test compound, the cells are fixed in situ to the bottoms of the microtitre wells by addition of 50 ul of either 50% trichloroacetic acid (for adherent cell lines) or 80% trichloroacetic acid (for settled cell suspension lines), followed by incubation for 60 minutes at 4θC. The cellular protein in each well is assayed using a sulforhodamine B (SRB) stain procedure. Briefly, after discarding the supernatants, the microtitre plates are washed 5 times with deionized water and air-dried. One hundred microliters of SRB solution (0.4% w/v in 1% acetic acid) is added to each microtitre well and incubated for 10 minutes at room temperature. Unbound SRB is removed by washing 5 times with 1 % acetic acid. The plates are air-dried, the bound stain is solubilized with Tris buffer, and the optical densities read at 515 nm. SRB is a bright pink anionic dye which, in dilute acetic acid, binds electrostatically to the basic amino acids of TCA-fixed cells. Cryopreserved master stocks of all the lines are maintained, and cultures used for screening are replaced from the master stock after no more than twenty passages in the screening laboratory. The cell line panel consists of 60 lines, organized into nine, disease-related subpanels including leukemia, non-small-cell lung cancer, colon, CNS, melanoma, ovarian, renal, prostate and breast cancers.
The response parameters G150 and LC50 are interpolated values representing the concentrations at which the percentage growth (PG) is +50 and −50, respectively:
GI50 is the concentration for which the PG=+50. At this value the increase from time tzero, in the number or mass of cells in the test well is only 50% as much as the corresponding increase in the control well during this period of the experiment, see Table II. A drug effect of this intensity is interpreted as primary growth inhibition.
TGI is the concentration for which PG=0. At this value the number or mass of cells in the well at the end of the experiment equals the number or mass of cells in the well at time tzero, see Table III. A drug effect of this intensity is regarded as cytostasis.
LC50 is the concentration for which the PG=−50. At this value, the number or mass of cells in the test well at the end of the experiment is half that at time tzero, see Table IV. This is interpreted as cytotoxicity.

TK-10 = experiment: NCI 60 cell line screen (SRB), Renal Cancer; type: cell-based; settings: for Log10TGI: PG=0
DU-145 = experiment: NCI 60 cell line screen (SRB), Prostate Cancer; type: cell-based; settings: for Log10TGI: PG=0
HL-60(TB) = experiment: NCI 60 cell line screen (SRB), Leukemia; type: cell-based; settings: for Log10TGI: PG=0
OVCAR-3 = experiment: NCI 60 cell line screen (SRB), Ovarian Cancer; type: cell-based; settings: PG=0
SR = experiment: NCI 60 cell line screen (SRB), Leukemia; type: cell-based
SNB-75 = experiment: NCI 60 cell line screen (SRB), CNS Cancer; type: cell-based
[1] = Table IV (LC50, PG=−50), MOLT−4

CC1=C(C=Cc2cccc(C=CC3=C(C)C4CCC(C)C5CCC6(C)OOC45C(O3)O6)c2)OC2OC3(C)CCC4C(C)CCC1C24OO3 (centres unmarked) [VII-g]
Log10TGI (EKVX): >−4.00 log10M | Log10GI50 (EKVX; PG=+50): −7.17 log10M | Log10GI50 (EKVX; Table IV (LC50, PG=−50)): >−4.00 log10M | Log10TGI (U251): >−4.00 log10M | Log10GI50 (U251; PG=+50): −6.86 log10M | Log10GI50 (U251; Table IV (LC50, PG=−50)): >−4.00 log10M | Log10TGI (KM12): >−4.00 log10M | Log10GI50 (KM12; PG=+50): −7.27 log10M | Log10GI50 (KM12; Table IV (LC50, PG=−50)): >−4.00 log10M | Log10TGI (NCI-H23): −4.06 log10M | log10 GI50 or LC50 (see conditions) (NCI-H23; PG=+50): −5.92 log10M | log10 GI50 or LC50 (see conditions) (NCI-H23; Table IV (LC50, PG=−50)): >−4.00 log10M | Log10TGI (A498): −4.05 log10M | Log10GI50 (A498; PG=+50): −6.04 log10M | Log10GI50 (A498; Table IV (LC50, PG=−50)): >−4.00 log10M | Log10GI50 (BT-549; PG=+50): −7.51 log10M | Log10GI50 (BT-549; Table IV (LC50, PG=−50)): >−4.00 log10M | drug concentration for cytotoxicity (percentage growth −50) (MOLT-4): greater than 10^−4 M | drug concentration for primary growth inhibition (percentage growth +50) (MOLT-4; MOLT-4): > 10^−7 molar | Log10GI50 (MOLT-4; MOLT-4, PG=+50): −7.30 log10M | Log10TGI (MOLT-4; MOLT−4): −7.30 log10M | Log10GI50 (MOLT-4; [1]): >−4.00 log10M | Log10TGI (TK-10): >−4.00 log10M | Log10GI50 (TK-10; PG=+50): −6.48 log10M | Log10GI50 (TK-10; Table IV (LC50, PG=−50)): >−4.00 log10M | Log10TGI (DU-145): >−4.00 log10M | Log10GI50 (DU-145; PG=+50): −5.71 log10M | Log10GI50 (DU-145; Table IV (LC50, PG=−50)): >−4.00 log10M | Log10TGI (HL-60(TB)): −7.20 log10M | Log10GI50 (HL-60(TB); PG=+50): −7.20 log10M | Log10GI50 (HL-60(TB); Table IV (LC50, PG=−50)): >−4.00 log10M | Log10TGI (OVCAR-3): >−4.00 log10M | Log10TGI (SR; PG=0): −7.42 log10M | Log10GI50 (SR; PG=+50): −7.42 log10M | Log10GI50 (SR; Table IV (LC50, PG=−50)): >−4.00 log10M | Log10 GI50 (PG=+50) or LC50 (PG=−50) (SNB-75; PG=+50): −6.45 log10M | Log10 GI50 (PG=+50) or LC50 (PG=−50) (SNB-75; Table IV (LC50, PG=−50)): >−4.00 log10M

CC1=C(C=Cc2cccc(C=CC3=C(C)C4CCC(C)C5CCC6(C)OOC45C(O3)O6)c2)OC2OC3(C)CCC4C(C)CCC1C24OO3 (centres unmarked) [VII-h]
Log10TGI (EKVX): >−4.00 log10M | Log10GI50 (EKVX; PG=+50): −7.42 log10M | Log10GI50 (EKVX; Table IV (LC50, PG=−50)): >−4.00 log10M | Log10TGI (U251): >−4.00 log10M | Log10GI50 (U251; PG=+50): −7.26 log10M | Log10GI50 (U251; Table IV (LC50, PG=−50)): >−4.00 log10M | Log10TGI (KM12): >−4.00 log10M | Log10GI50 (KM12; PG=+50): −7.81 log10M | Log10GI50 (KM12; Table IV (LC50, PG=−50)): >−4.00 log10M | Log10TGI (NCI-H23): >−4.00 log10M | log10 GI50 or LC50 (see conditions) (NCI-H23; PG=+50): −6.35 log10M | log10 GI50 or LC50 (see conditions) (NCI-H23; Table IV (LC50, PG=−50)): >−4.00 log10M | Log10TGI (A498): >−4.00 log10M | Log10GI50 (A498; PG=+50): −6.29 log10M | Log10GI50 (A498; Table IV (LC50, PG=−50)): >−4.00 log10M | Log10TGI (BT-549; PG=0): −7.10 log10M | Log10GI50 (BT-549; PG=+50): <−8.00 log10M | Log10GI50 (BT-549; Table IV (LC50, PG=−50)): >−4.00 log10M | drug concentration for cytotoxicity (percentage growth −50) (MOLT-4): greater than 10^−4 M | drug concentration for primary growth inhibition (percentage growth +50) (MOLT-4; MOLT-4): greater than 10^−8 molar | Log10GI50 (MOLT-4; MOLT-4, PG=+50): <−8.00 log10M | Log10TGI (MOLT-4; MOLT−4): <−8.00 log10M | Log10GI50 (MOLT-4; [1]): >−4.00 log10M | Log10TGI (TK-10): >−4.00 log10M | Log10GI50 (TK-10; PG=+50): −7.22 log10M | Log10GI50 (TK-10; Table IV (LC50, PG=−50)): >−4.00 log10M | Log10TGI (DU-145): >−4.00 log10M | Log10GI50 (DU-145; PG=+50): −6.16 log10M | Log10GI50 (DU-145; Table IV (LC50, PG=−50)): >−4.00 log10M | Log10TGI (HL-60(TB)): −7.59 log10M | Log10GI50 (HL-60(TB); PG=+50): −7.59 log10M | Log10GI50 (HL-60(TB); Table IV (LC50, PG=−50)): >−4.00 log10M | Log10TGI (OVCAR-3): >−4.00 log10M | Log10GI50 (SR; Table IV (LC50, PG=−50)): >−4.00 log10M | Log10TGI (SNB-75; PG=0): −5.08 log10M | Log10 GI50 (PG=+50) or LC50 (PG=−50) (SNB-75; PG=+50): −6.99 log10M | Log10 GI50 (PG=+50) or LC50 (PG=−50) (SNB-75; Table IV (LC50, PG=−50)): >−4.00 log10M

From US20020055528A1, “Artemisinin analogs having antimalarial, antiproliferative, and antitumor activities and chemoselective methods of making the same” (priority 1999, published 2002)
